Drawing on PubChem BioAssay (NCI), this text covers GI50 and TGI for 2 compounds.

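Dose response: 5 concentrations. Exposure: 48 h. Format: 96-well plates. Endpoint: linear interpolation; highest concentration if not reached. Here, GI50 denotes the concentration required for 50% inhibition of growth. TGI marks complete inhibition of growth.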

Among the test systems are RPMI-8226 leukemia; M14 melanoma; NCI-H522 lung; MDA-MB-231 breast; DU-145 prostate; UO-31 renal; MOLT-4 leukemia; OVCAR-5 ovarian; RXF 393 renal; SR leukemia.
Common to all, as to assay: DTP human tumour cell line panel, 48 h

Turning to `CCCCCCCCCCCCNC(=O)[C@H]1CSC(c2ccc(OC)c(F)c2)N1` (stereo not given in full), the GI50 is 2060 nM in the assay with RPMI-8226 leukemia; 191 nM in the assay with M14 melanoma; 1820 nM with NCI-H522 lung; 225 nM in the assay on MDA-MB-231 breast; 888 nM in the assay on DU-145 prostate; 1630 nM in the assay with UO-31 renal. Also, the GI50 in the assay with MOLT-4 leukemia is 214 nM; in the assay on OVCAR-5 ovarian, 1400 nM; with RXF 393 renal, 867 nM; with SR leukemia, 324 nM. The TGI with RPMI-8226 leukemia was 4620 nM; in the assay with M14 melanoma it was 374 nM; in the assay on NCI-H522 lung, 3640 nM; in the assay with MDA-MB-231 breast, 550 nM; in the assay on DU-145 prostate it was 2460 nM; in the assay on UO-31 renal it was 3010 nM. Moreover, the TGI with MOLT-4 leukemia was found to be 469 nM; in the assay with OVCAR-5 ovarian, 2720 nM; in the assay with RXF 393 renal it was 2200 nM; in the assay with SR leukemia, 1590 nM.

In the case of `Cc1nn(C(=O)c2ccccc2O)c2c1C(c1ccc(O)cc1)SC(N)=N2` (stereo not given), the TGI with RPMI-8226 leukemia is > 5380 nM; with M14 melanoma it was > 10000 nM; in the assay on NCI-H522 lung, > 10000 nM; with MDA-MB-231 breast, > 10000 nM; with DU-145 prostate, > 10000 nM; in the assay on UO-31 renal it was > 10000 nM. Also, the TGI in the assay with MOLT-4 leukemia was > 10000 nM; in the assay with OVCAR-5 ovarian it was > 10000 nM; in the assay on RXF 393 renal, > 10000 nM; in the assay on SR leukemia, > 3920 nM.
